What was measured:
Assay type in all cases: in vivo
Echinochloa crusgalli = experiment: Post-emergence test experiment, Echinochloa crusgalli; conditions: for inhibition at 200 g/ha / Echinochloa crusgalli, activity level (growth inhibition rate): 200 g a.i./ha, weed resistant to ALS inhibitor and ACCe herbicides; for Activity level (growth inhibition rate), Echinochloa crusgalli: 1000 g a.i./ha, 3 weeks in greenhouse, fresh weight inhibition
Summary of the method: (§1)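 Greenhouse-grown plants sprayed at the 2-3 leaf stage, 2 weeks after sowing, with compound in acetone/tween-80 diluted in water plus 1.5 L/ha methyl oleate emulsifiable concentrate as synergist. Effect scored 3 weeks later as fresh weight inhibition rate.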

Digitaria sanguinalis = experiment: Post-emergence test experiment, Digitaria sanguinalis; conditions: for inhibition at 200 g/ha / Digitaria sanguinalis, activity level (growth inhibition rate): 200 g a.i./ha, weed resistant to cyhalofop-butyl; for Activity level (growth inhibition rate), Digitaria sanguinalis: 1000 g a.i./ha, 3 weeks in greenhouse, fresh weight inhibition
Summary of the method: as §1

[1] = tested on: Semen Euphorbiae Lathyridis; experiment: Post-emergence test experiment, Semen Euphorbiae Lathyridis; conditions: 3 weeks; for inhibition at 200 g/ha / Semen Euphorbiae Lathyridis, activity level (growth inhibition rate): 200 g a.i./ha, weed resistant to cyhalofop-butyl
Method: (§2) The above described growth inhibition rate is fresh weight inhibition rate.
(§3) Post-emergence test experiment: Monocotyledonous and dicotyledonous weed seeds and main crop seeds (i. e. wheat, corn, rice, soybean, cotton, oilseed, millet and sorghum.) were put into a plastic pot loaded with soil. Then covered with 0.5-2 cm soil, the seeds were allowed to grow in good greenhouse environment. The test plants were treated at 2-3 leaf stage 2 weeks after sowing. The test compounds of the invention were dissolved with acetone respectively, then added with tween-80, and using 1.5 liters per hectare of an emulsible concentrate of methyl oleate as a synergist, and diluted by certain amount of water to certain concentration. The solution was sprayed to the plants with a sprayer. Then the plants were cultured for 3 weeks in the greenhouse, and the experiment result of weed controlling effect was listed in tables 4-5.

rice = experiment: Post-emergence test experiment, rice (crop selectivity); conditions: 200 g a.i./ha, 3 weeks
Method: as §2, §3

[2] = tested on: Monocotyledonous and dicotyledonous weed seeds and main crop seeds; experiment: Post-emergence test experiment, other weeds and crops (Table 4, 1000 g a.i./ha); conditions: 3 weeks in greenhouse, fresh weight inhibition
Summary of the method: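 Weed and crop seeds (wheat, corn, rice, soybean, cotton, oilseed, millet, sorghum) sown in soil pots in a greenhouse and sprayed at 2-3 leaf stage, 2 weeks after sowing. Compound in acetone/tween-80 with methyl oleate concentrate (1.5 L/ha) as synergist. Effect recorded as fresh-weight growth inhibition rate.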

[3] = Echinochloa crus-galli, 504 h, 3 weeks, read-out: Echinochloa crusgalli, activity level (growth inhibition rate)
[4] = Digitaria sanguinalis, 504 h, 3 weeks, read-out: Digitaria sanguinalis, activity level (growth inhibition rate)
[5] = 504 h, read-out: Semen Euphorbiae Lathyridis, activity level (growth inhibition rate)

Compound | inhibition at 200 g/ha (Echinochloa crusgalli; [3]) [%] | inhibition at 200 g/ha (Digitaria sanguinalis; [4]) [%] | inhibition at 200 g/ha [1, 5] [%] | further results
C[C@H](Oc1nc(F)c(Cl)c(N)c1Cl)C(=O)O [reference compound] | 5 to 20 | 5 to 20 | 5 to 20 | 
CCOC(=O)C(C)Oc1nc(F)c(Cl)c(N)c1Cl (centres unmarked) [reference compound] | 20 to 40 | 20 to 40 | 40 to 60 | rice, activity level (growth inhibition rate) (rice): 1 (Level 1: the growth inhibition rate is equal to or greater than 5% and less than 20%)
CCOC(=O)[C@H](C)Oc1nc(F)c(Cl)c(N)c1Cl [reference compound] | 5 to 20 | 5 to 20 | 5 to 20 | 
C[C@H](Oc1nc(Cl)c(Cl)c(N)c1Cl)C(=O)O [reference compound] | 5 to 20 | 5 to 20 | 5 to 20 | 
COc1cc(OC)nc(Oc2cccc(Oc3nc(OC)cc(OC)n3)c2C(=O)O)n1 [bispyribac-sodium, reference compound] |  |  |  | inhibition at 100 g/ha (Echinochloa crusgalli; Echinochloa crus-galli, 504 h, 100 g a.i./ha, 3 weeks, resistant weed, read-out: Echinochloa crusgalli, activity level (growth inhibition rate)): 5 to 20%; inhibition at 100 g/ha (Digitaria sanguinalis; Digitaria sanguinalis, 504 h, 100 g a.i./ha, 3 weeks, resistant weed, read-out: Digitaria sanguinalis, activity level (growth inhibition rate)): 5 to 20%; inhibition at 100 g/ha ([1]; 504 h, 100 g a.i./ha, resistant weed, read-out: Semen Euphorbiae Lathyridis, activity level (growth inhibition rate)): < 5%
CC(C)=NOC(=O)C(C)Oc1nc(F)c(Cl)c(N)c1Cl (centres unmarked) [Compound 2-292] |  |  |  | Echinochloa crusgalli, activity level (growth inhibition rate) (Echinochloa crusgalli; 3 weeks): 5 (Level 5: the growth inhibition rate is greater than 85%); Activity level (growth inhibition rate), Echinochloa crusgalli (Echinochloa crusgalli): 5 (Level 5: the growth inhibition rate is greater than 85%); Digitaria sanguinalis, activity level (growth inhibition rate) (Digitaria sanguinalis; 3 weeks): 5 (Level 5: the growth inhibition rate is greater than 85%); Activity level (growth inhibition rate), Digitaria sanguinalis (Digitaria sanguinalis): 5 (Level 5: the growth inhibition rate is greater than 85%); Semen Euphorbiae Lathyridis, activity level (growth inhibition rate) [1]: 5 (Level 5: the growth inhibition rate is greater than 85%); Activity level (growth inhibition rate), Abutilon theophrasti Medic. [2]: 5 (Level 5: the growth inhibition rate is greater than 85%); Activity level (growth inhibition rate), Galium aparine [2]: 5 (Level 5: the growth inhibition rate is greater than 85%); Activity level (growth inhibition rate), Monochoria Vaginalis [2]: 5 (Level 5: the growth inhibition rate is greater than 85%)
CC(Oc1nc(F)c(Cl)c(N)c1Cl)C(=O)O (centres unmarked) [reference compound] | 20 to 40 | 40 to 60 | 40 to 60 | rice, activity level (growth inhibition rate) (rice): 2 (Level 2: the growth inhibition rate is equal to or greater than 20% and less than 40%)
COC(=O)C(C)Oc1ncc(Cl)c(N)c1Cl (centres unmarked) [reference compound] | 20 to 40 | 40 to 60 | 20 to 40 | 
CC(Oc1nc(F)c(Cl)c(N)c1Cl)C(=O)OCC1CCCO1 (centres unmarked) [drawing 482, reference compound] | 40 to 60 |  |  | rice, activity level (growth inhibition rate) (rice): 0 (Level 0: the growth inhibition rate is less than 5%)
COC(=O)[C@H](C)Oc1ncc(Cl)c(N)c1Cl [reference compound] | < 5 | < 5 | < 5 | 
COC(=O)[C@@H](C)Oc1ncc(Cl)c(N)c1Cl [Compound 2-30] |  |  |  | Echinochloa crusgalli, activity level (growth inhibition rate) (Echinochloa crusgalli; 3 weeks): 4 (Level 4: the growth inhibition rate is equal to or greater than 60% and less than 85%); Activity level (growth inhibition rate), Echinochloa crusgalli (Echinochloa crusgalli): 5 (Level 5: the growth inhibition rate is greater than 85%); Digitaria sanguinalis, activity level (growth inhibition rate) (Digitaria sanguinalis; 3 weeks): 5 (Level 5: the growth inhibition rate is greater than 85%); Activity level (growth inhibition rate), Digitaria sanguinalis (Digitaria sanguinalis): 5 (Level 5: the growth inhibition rate is greater than 85%); Semen Euphorbiae Lathyridis, activity level (growth inhibition rate) [1]: 4 (Level 4: the growth inhibition rate is equal to or greater than 60% and less than 85%); Activity level (growth inhibition rate), Abutilon theophrasti Medic. [2]: 5 (Level 5: the growth inhibition rate is greater than 85%); Activity level (growth inhibition rate), Galium aparine [2]: 5 (Level 5: the growth inhibition rate is greater than 85%); Activity level (growth inhibition rate), Monochoria Vaginalis [2]: 5 (Level 5: the growth inhibition rate is greater than 85%)
CC(Oc1nc(Cl)c(Cl)c(N)c1Cl)C(=O)O (centres unmarked) [reference compound] | 20 to 40 | 40 to 60 | 40 to 60 | 

Source: US12304890B2, “R-type pyridyloxycarboxylic acid, salt and ester derivative thereof, and preparation method therefor, and herbicidal composition and application thereof” (Qingdao Kingagroot Chemical Compound Co., Ltd., priority 2018, dated 2025)
